Assay [1] relates to Plasmodium falciparum. Description: ST_JUDE: Plasmodium falciparum 3D7 EC50 (uM) as measured by SYBR green dye. Format: functional, organism-based.
The subject of assay [2] is Plasmodium falciparum. Description: ST_JUDE: Plasmodium falciparum K1 EC50 (uM) as measured by SYBR green dye. Format: functional, organism-based.

Structures are written as SMILES.

Usually EC50 stands for the concentration needed to bring the measured effect to its halfway point. With `CCOC(=O)c1c(CSC(=N)N)n(-c2ccccc2)c2cc(Br)c(OC(C)=O)cc12`, the half-maximal effective concentration (EC50) with Plasmodium falciparum [1] came to 0.749 µM; in the assay with Plasmodium falciparum [2], 2.9 µM.
For the compound `CC(=O)N1CCc2c(sc(NC(=O)c3cc([N+](=O)[O-])ccc3Cl)c2C#N)C1`, the results for the EC50 in the assay with Plasmodium falciparum [1] and in the assay with Plasmodium falciparum [2] were 4.07 µM and 1.32 µM, respectively.
For `CN(C)CCN(C)C(=O)c1cccc(OC2CCN(Cc3ccccc3O)CC2)c1`, in that order: 4.8 µM and 5.14 µM.
For `CCCCCCn1c(=N)n(CC(O)COc2cccc(C)c2)c2ccccc21` (centres undefined) the same measures were 1.97 µM and 0.725 µM.
For `CCOc1ccccc1C(=O)NCCc1csc(-c2ccc(OC)cc2)n1` the same measures were more than 15 µM and 7.53 µM.
In the case of `CCOc1cc(O)c(-c2[nH]nc(C)c2Oc2ccc(F)cc2)cc1CC`, the EC50 in the assay on Plasmodium falciparum [1] worked out at 2.51 µM; with Plasmodium falciparum [2] it was 3.55 µM.
As to `CCOC(=O)C1=C(C)N=c2s/c(=C\c3ccc(O)cc3)c(=O)n2C1c1ccc(OC)c(OC)c1` (centres undefined), the figures for the EC50 in the assay with Plasmodium falciparum [1] and in the assay with Plasmodium falciparum [2] were more than 15 µM and 1.4 µM, respectively.
For `CCn1c2c(c(=N)c3c1CCC3)CCCC2` the same measures were 3.12 µM and 6.57 µM.
As to `COc1cc(CNCCCN(C)C)ccc1OCc1ccc(F)cc1Cl`, the concentration giving a half-maximal response (EC50) in the assay with Plasmodium falciparum [1] stood at 1.59 µM; in the assay on Plasmodium falciparum [2], 6.63 µM.
For `CSc1cccc(NC(=O)Cn2c(=O)sc3ccccc32)c1`, in that order: more than 15 µM and more than 15 µM.
In the case of `COc1ccc(NC(=O)C2c3ccccc3C(=O)N(C)C2c2cccs2)cc1Cl` (centres undefined), the figures for the 50% effective concentration (EC50) in the assay with Plasmodium falciparum [1] and in the assay on Plasmodium falciparum [2] were 1.07 µM and 1.35 µM, respectively.
For `Cc1ccc(Nc2cc(C)nc(Nc3ccc(NS(=O)(=O)c4ccc(Cl)cc4)cc3)n2)cc1` the same measures were 0.432 µM and more than 15 µM.
`O=[N+]([O-])c1cccc(-c2cn(-c3ccccc3)c3[n+]2CCCS3)c1`: the EC50 in the assay with Plasmodium falciparum [1] is 2.28 µM; in the assay with Plasmodium falciparum [2] it was 3.91 µM.
For `Cn1c(-c2ccc(F)cc2)[n+](C)c2ccccc21`, in that order: 1.88 µM and 3.79 µM.
For `CCCCCCC(O)(c1ccc(F)cc1)C(CN1CCOCC1)c1ccccc1` (centres undefined), in that order: 3.18 µM and 2.19 µM.
As to `COc1ccc(CCNC(=S)Nc2ccccc2Cl)cc1Br`, the EC50 worked out at 0.96 µM in the assay with Plasmodium falciparum [1] and 1.6 µM in the assay on Plasmodium falciparum [2].
Regarding `CCN(CCN(C)C)C(=O)c1csc(-c2ccc(OC(F)(F)F)cc2)n1`, the EC50 with Plasmodium falciparum [1] was 4.51 µM; in the assay with Plasmodium falciparum [2] it was more than 15 µM.
For `CCOC(=O)c1cccc(NC(=O)CC2C(=O)N(c3ccc(F)cc3)C(=O)N2C2CCCC2)c1` (centres undefined), in that order: 0.344 µM and 0.984 µM.
Take `Brc1ccc(C2=CC(c3ccccc3)n3ncnc3N2)cc1` (centres undefined): the EC50 in the assay with Plasmodium falciparum [1] and in the assay on Plasmodium falciparum [2] was more than 15 µM each time.
Consider `COc1cccc(OC)c1CN1CCC(C(Cc2ccccc2F)N(C)C(=O)c2cccs2)CC1` (centres undefined), for which the EC50 in the assay on Plasmodium falciparum [1] came to 7.28 µM; with Plasmodium falciparum [2] it was 4.22 µM.
For `CCN(CC)S(=O)(=O)c1ccc(C(=O)NNc2nc3c(C)cccc3s2)cc1`, in that order: more than 15 µM and more than 15 µM.
On to `CC(C)C[C@@H](CO)Nc1c2ccccc2nc2ccccc12`, for which the EC50 with Plasmodium falciparum [1] is 2.85 µM; with Plasmodium falciparum [2] it was 4.3 µM.
For `Cc1cc(Nc2ccc(C)c(F)c2)n2nc(C)nc2n1` the same measures were 1.29 µM and 3.09 µM.
For `CCC(=O)NC(c1ccc(OC)c(OC)c1)c1ccc2cccnc2c1O` (centres undefined) the same measures were 3.8 µM and 4.78 µM.
For `CC(C)CN1C(=O)c2ccccc2C(C(=O)Nc2ccc(Cl)cn2)C1c1cccs1` (centres undefined) the same measures were 3.44 µM and 4.78 µM.
Turning to `COc1ccc(NC(=O)Cn2ncc3c(=O)oc4ccc(C)cc4c32)cc1`, the EC50 in the assay with Plasmodium falciparum [1] and in the assay on Plasmodium falciparum [2] was more than 15 µM in each case.
On to `CCOc1cc(C2C3=C(O)CC(c4ccc(Cl)cc4)CC3=NC(C)=C2C(=O)OC(C)C)ccc1O` (centres undefined), for which the concentration giving a half-maximal response (EC50) in the assay with Plasmodium falciparum [1] was found to be 1.54 µM; in the assay with Plasmodium falciparum [2], 1.62 µM.
For `O=Cc1ccc2noc(-c3ccc(Cl)cc3)c2c1`, in that order: more than 15 µM and more than 15 µM.
`COc1cccc(NC(=O)C2c3ccccc3C(=O)N(C3CCCC3)C2c2cccs2)c1` (centres undefined): the 50% effective concentration (EC50) with Plasmodium falciparum [1] stood at 0.45 µM; in the assay with Plasmodium falciparum [2], 0.474 µM.
Take `Cc1ccc(-c2nc(-c3ccc(Cl)cc3)no2)cc1`: the concentration for a half-maximal effect (EC50) with Plasmodium falciparum [1] and in the assay on Plasmodium falciparum [2] was more than 15 µM in each case.
With `Cc1c(Cl)cccc1NC(=O)Nc1ccc(Cl)c(Cl)c1`, the half-maximal effective concentration (EC50) with Plasmodium falciparum [1] was 4.13 µM; in the assay on Plasmodium falciparum [2] it was more than 15 µM.
As for `CCOc1ccc(NC2=C(NCCO)C(=O)c3ccccc3C2=O)cc1`, the results for the EC50 in the assay with Plasmodium falciparum [1] and in the assay with Plasmodium falciparum [2] were 3.54 µM and 4.88 µM, respectively.
For `CCCN1CCC(NC(=S)Nc2ccc([N+](=O)[O-])cc2)CC1` the same measures were more than 15 µM and more than 15 µM.
For `Cc1ccc(C)c(NC(=O)CSc2ccc(Cl)cc2)c1`, in that order: more than 15 µM and more than 15 µM.
`COc1cc(C(NC(=O)CCl)NC(=O)CCl)ccc1OCC(C)C`: the concentration for a half-maximal effect (EC50) with Plasmodium falciparum [1] was found to be 5.66 µM; in the assay on Plasmodium falciparum [2], 3.67 µM.
As to `CC(C)Cc1cc(C(=O)NCC2Cc3cc(Cl)cc(-c4ccncc4)c3O2)no1` (centres undefined), the EC50 is more than 15 µM in the assay on Plasmodium falciparum [1] and 6.45 µM in the assay on Plasmodium falciparum [2].
In the case of `CCCOc1ccc(-c2[nH]ncc2Oc2ccccc2)c(O)c1`, the EC50 turned out to be 4.7 µM in the assay with Plasmodium falciparum [1] and 2.49 µM in the assay with Plasmodium falciparum [2].
For `Cc1ccc(Cl)cc1NC(=O)c1c(-c2c(Cl)cccc2Cl)noc1C` the same measures were 0.481 µM and 8.12 µM.
For `CC(=O)c1ccc(NC2=C(n3nnc4ccccc43)C(=O)c3ccccc3C2=O)cc1`, the half-maximal effective concentration (EC50) in the assay with Plasmodium falciparum [1] was more than 15 µM; with Plasmodium falciparum [2], 1.58 µM.
For `COc1cc(/C=C(\C#N)C(=O)Nc2ccccc2F)cc(OC)c1OC`, in that order: more than 15 µM and more than 15 µM.
Turning to `Cc1ccccc1Nc1nc(NCc2ccco2)c2ccccc2n1`, the EC50 is 3.55 µM with Plasmodium falciparum [1] and more than 15 µM in the assay with Plasmodium falciparum [2].
For `Clc1cccc(C2Nc3ccccc3-c3nc4ccccc4n32)c1` (centres undefined) the same measures were more than 15 µM and 4.63 µM.
For `CC(=O)NCC(=O)NC1CC(C)(C)Cc2c1cnn2-c1ccccc1` (centres undefined) the same measures were more than 15 µM and more than 15 µM.
For `CCCN(CCC)CCCNC(=O)c1ccc2c(Cl)c3c(nc2c1)CCCC3`, in that order: more than 15 µM and more than 15 µM.
For the compound `O=C(CSc1nccn1-c1ccc([N+](=O)[O-])cc1)N1CCc2ccccc21`, the EC50 in the assay on Plasmodium falciparum [1] and in the assay on Plasmodium falciparum [2] was more than 15 µM throughout.
`CCOc1ccccc1CN1CCN(Cc2cc(Br)ccc2O)CC1`: the 50% effective concentration (EC50) was 2.48 µM with Plasmodium falciparum [1] and 1.29 µM in the assay with Plasmodium falciparum [2].
On to `CN1CCN(c2nc(Nc3ccc(O)cc3)nc3ccccc23)CC1`, for which the figures for the EC50 in the assay on Plasmodium falciparum [1] and in the assay with Plasmodium falciparum [2] were 2.75 µM and 6.2 µM, respectively.
As to `CCn1c2ccccc2c2cc(CN3CCN(Cc4cc(OC)ccc4O)CC3)ccc21`, the values for the EC50 in the assay with Plasmodium falciparum [1] and with Plasmodium falciparum [2] were 2.84 µM and 1.22 µM, respectively.
For `C=CCn1c(C)c(C=C2C(=O)NC(=S)NC2=O)c2ccccc21`, in that order: 1.69 µM and 1.4 µM.
For `CCN(CC)CCn1c(=N)n(CCOc2ccc(Cl)cc2Cl)c2ccccc21` the same measures were more than 15 µM and 7.48 µM.
Regarding `CCN(CC)CCCNc1nc(-c2ccc(Cl)cc2)nc2ccccc12`, the 50% effective concentration (EC50) with Plasmodium falciparum [1] and with Plasmodium falciparum [2] was more than 15 µM throughout.
`Cc1ccc(Nc2nc(N)c3ccccc3n2)cc1Cl`: the EC50 in the assay with Plasmodium falciparum [1] and with Plasmodium falciparum [2] was more than 15 µM throughout.

These data come from ChEMBL document CHEMBL1154198, “Chemical genetics of Plasmodium falciparum” (Nature, 2010).
